Measurements reported in patent publication US11208418B2, “Nitrogenous tricyclic compounds and uses thereof in medicine” (SUNSHINE LAKE PHARMA CO., LTD., priority 2018, dated 2021).

Assays:
[1] = Pharmacokinetic test in SD rats; assay type: in vivo; settings: male, rat, plasma
Procedure: Experimental animals: 6 healthy male adult SD rats (purchased from Hunan SJA Laboratory Animal Co.; Ltd) were randomized into 2 groups, 3 in each group, the groups were administered by intravenous injection and gavage respectively.
Preparation of drugs: an amount of the compound was scaled, and the target concentrate of the compound was prepared by addition of 5% DMSO, 10% Kolliphor HS15 and 85% saline (0.9%).
Administration and samples collection: the animals were fasted 12 hours before administration and provided again 3 hours post-administration, SD rats were administrated by intravenous injection from hindlimb peduncular veins (1 mg/kg) and by gavage (PO, 5 mg/kg). 200-400 μL of blood was collected at different time points 0, 0.083, 0.25, 0.5, 1, 2, 4, 6, 8, 24 h from rats tail vein. Blood collection was 200-400 μL per time point. The blood collected at each time point was placed in K2EDTA anticoagulant tube, and stored at a couveuse with ice bags. All the samples in 15 min were centrifuged at 4600 r/min at 4° C. for 5 min, plasma samples were obtained, the concentrates of compound in the plasma samples were determined by LC/MS/MS, the pharmacokinetic parameters were calculated based on the drug concentration-time curve.

[2] = molecular target: farnesoid X receptor protein (Homo sapiens (Human), UniProt Q96RI1); experiment: Coactivation of TR-FRET farnesoid X receptor protein (Invitrogen PV4833 Kit); assay type: biochemical; settings: TR-FRET coactivator recruitment, Fluorescein-SRC2-2, 1 hour at room temperature
Procedure: Purchasing Invitrogen PV4833 Kit.
Step 1, the compound was weighed and dissolved in 100% DMSO, the highest concentration is 3000 μM, and then diluted with DMSO by 3-fold serial dilution to get 10 concentrations.
Step 2, the above formulated compound solutions were diluted 100 times with the buffer provided in the kit, which were mixed respectively and 10 μL of which were added into a 384 well plate in turn.
Step 3, FXR recombinant nucleo receptor protein was diluted with a buffer to formulate 4× concentration, and 5 μL of which was added into the above 384 well plate containing the compound.
Step 4, Fluorescein-SRC2-2 and Tb anti-GST antibody were diluted with a buffer respectively, both concentration are 4×, after the two reagents were mixed together, 10 μL of which was added into the 384 well plate described in step 3.
At last, the solution in the 384 well plate was blend by centrifugation, and then incubated at room temperature for 1 hour.

[3] = Liver microsome stability test; assay type: in vitro ADME; settings: rat liver microsomes, compound 1 μM, 0.5 mg/mL microsome, 37° C.; for half-life at 1 μM: pH 7.4
Procedure: The solution of compound in DMSO (10 mM) was diluted with a mixed solvent of acetonitrile and water (1:1, v/v) to get a 100 μM compound solution, and then the 100 μM compound solution was diluted with potassium phosphate buffer (0.1 M, pH 7.4) to get a 3 μM compound solution. NADPH was formulated with potassium phosphate buffer (0.1 M, pH 7.4) to NADPH solution (6 mM). Rat liver microsome was formulated with potassium phosphate buffer (0.1 M, pH 7.4) to liver microsome solution (1.5 mg/mL).
The total volume of incubation mixture was 45 μL, including 15 μL rat liver microsome solution (1.5 mg/mL), 15 μL compound solution (3 μM) and 15 μL NADPH solution (6 mM), the final concentration of liver microsome in the incubation mixture was 0.5 mg/mL, the compound concentration was 1 μM, the NADPH concentration was 2 mM.
The incubation mixture was incubated at 37° C. The reaction was terminated by adding 120 μL acetonitrile solution containing internal standard at different time points (20 min and 60 min), and centrifuged at 4000 rpm for 5 min. The supernatant was took out and analyzed by LC-MS/MS.
At the same time, a parallel incubation test was set up, using inactivated rat liver microsomes as negative control and verapamil at the same concentration as positive control. The reaction was incubated at 37° C. and terminated at different time points (20 minutes and 60 minutes).
The ratio of sample peak area to internal standard peak area was obtained by analyzing through LC/MS/MS, the drug content of the negative control was as 100%, the drug relative content at each time point was calculated. The rate constant was obtained by plotting based on “Log[compound concentration]” to “incubating time”, and then the half-life T1/2 and intrinsic clearance CLHep of the compound were calculated.

Sequence of farnesoid X receptor protein (Q96RI1 262-486, other chains not shown): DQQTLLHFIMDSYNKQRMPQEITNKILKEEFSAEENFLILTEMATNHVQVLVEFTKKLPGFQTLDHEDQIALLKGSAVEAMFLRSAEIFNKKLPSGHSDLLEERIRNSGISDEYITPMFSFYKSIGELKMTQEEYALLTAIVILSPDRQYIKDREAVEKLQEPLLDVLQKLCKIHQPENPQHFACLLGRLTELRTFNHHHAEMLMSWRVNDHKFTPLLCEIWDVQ

Row | Structure (SMILES) | AUC(0-inf) ([1]; iv, 1 mg/kg) [ng·h/mL] | AUC(0-t) ([1]; iv, 1 mg/kg) [ng·h/mL] | Cmax ([1]; iv, 1 mg/kg) [ng/mL] | MRT inf ([1]; iv, 1 mg/kg) [min] | Tmax ([1]; iv, 1 mg/kg) [min] | clearance ([1]; iv, 1 mg/kg) [mL/min/kg] | half-life ([1]; iv, 1 mg/kg) [min] | Vd ([1]; iv, 1 mg/kg, read-out: Vss) [L/kg] | bioavailability ([1]; po 5 mg/kg versus iv 1 mg/kg) [%] | AUC(0-inf) ([1]; po, 5 mg/kg) [ng·h/mL] | AUC(0-t) ([1]; po, 5 mg/kg) [ng·h/mL] | Cmax ([1]; po, 5 mg/kg) [ng/mL] | MRT inf ([1]; po, 5 mg/kg) [min] | Tmax ([1]; po, 5 mg/kg) [min] | half-life ([1]; po, 5 mg/kg) [min] | EC50 [2] [nM] | half-life at 1 μM [3] [min] | ClHep [3] [mL/min/kg]
1 | O=C(O)c1ccc2c(c1)Oc1ccc(OCc3c(-c4ccccc4OC(F)(F)F)noc3C3CC3)nc1C1(CC1)C2 [Example 3, 2-((5-cyclopropyl-3-(2-(trifluoromethoxy)phenyl)isoxazol-4-yl)methoxy)-10H-Spiro[benzo[6,7]oxepino[3,2-b]pyridine-11,1′-cyclopropane]-7-carboxylic acid] | 1740 | 1730 | 1660 | 60.6 | 4.98 | 9.62 | 46.4 | 0.584 | 71.3 | 6210 | 6170 | 2320 | 103 | 60 | 53.5 | 8.6 | 26.8 | 92.61
2 | O=C(O)c1ccc2c(c1)Oc1ccc(OCc3c(-c4ccccc4OC(F)(F)F)noc3C3CC3)nc1CC2 [Example 2, 2-((5-cyclopropyl-3-(2-(trifluoromethoxy)phenyl)isoxazol-4-yl)methoxy)-10,11-dihydrobenzo[6,7]oxepino[3,2-b]pyridine-7-carboxylic acid] | – | – | – | – | – | – | – | – | – | – | – | – | – | – | – | – | 28.8 | 86.33
3 | O=C(O)c1ccc2c(c1)Oc1ccc(OCc3c(-c4ccc(Cl)cc4Cl)noc3C3CC3)nc1C1(CC1)C2 [Example 5, 2-((5-cyclopropyl-3-(2,4-dichlorophenyl)isoxazol-4-yl)methoxy)-10H-spiro[benzo[6,7]oxepino[3,2-b]pyridine-11,1′-cyclopropane]-7-carboxylic acid] | – | – | – | – | – | – | – | – | – | – | – | – | – | – | – | – | 25 | 99.23
